In the test the target is T1, purified human HDAC6 (Homo sapiens, UniProt Q9UBN7).
T1 construct: purchased BPS Bioscience 5006
T1 sequence (Q9UBN7 1-1215): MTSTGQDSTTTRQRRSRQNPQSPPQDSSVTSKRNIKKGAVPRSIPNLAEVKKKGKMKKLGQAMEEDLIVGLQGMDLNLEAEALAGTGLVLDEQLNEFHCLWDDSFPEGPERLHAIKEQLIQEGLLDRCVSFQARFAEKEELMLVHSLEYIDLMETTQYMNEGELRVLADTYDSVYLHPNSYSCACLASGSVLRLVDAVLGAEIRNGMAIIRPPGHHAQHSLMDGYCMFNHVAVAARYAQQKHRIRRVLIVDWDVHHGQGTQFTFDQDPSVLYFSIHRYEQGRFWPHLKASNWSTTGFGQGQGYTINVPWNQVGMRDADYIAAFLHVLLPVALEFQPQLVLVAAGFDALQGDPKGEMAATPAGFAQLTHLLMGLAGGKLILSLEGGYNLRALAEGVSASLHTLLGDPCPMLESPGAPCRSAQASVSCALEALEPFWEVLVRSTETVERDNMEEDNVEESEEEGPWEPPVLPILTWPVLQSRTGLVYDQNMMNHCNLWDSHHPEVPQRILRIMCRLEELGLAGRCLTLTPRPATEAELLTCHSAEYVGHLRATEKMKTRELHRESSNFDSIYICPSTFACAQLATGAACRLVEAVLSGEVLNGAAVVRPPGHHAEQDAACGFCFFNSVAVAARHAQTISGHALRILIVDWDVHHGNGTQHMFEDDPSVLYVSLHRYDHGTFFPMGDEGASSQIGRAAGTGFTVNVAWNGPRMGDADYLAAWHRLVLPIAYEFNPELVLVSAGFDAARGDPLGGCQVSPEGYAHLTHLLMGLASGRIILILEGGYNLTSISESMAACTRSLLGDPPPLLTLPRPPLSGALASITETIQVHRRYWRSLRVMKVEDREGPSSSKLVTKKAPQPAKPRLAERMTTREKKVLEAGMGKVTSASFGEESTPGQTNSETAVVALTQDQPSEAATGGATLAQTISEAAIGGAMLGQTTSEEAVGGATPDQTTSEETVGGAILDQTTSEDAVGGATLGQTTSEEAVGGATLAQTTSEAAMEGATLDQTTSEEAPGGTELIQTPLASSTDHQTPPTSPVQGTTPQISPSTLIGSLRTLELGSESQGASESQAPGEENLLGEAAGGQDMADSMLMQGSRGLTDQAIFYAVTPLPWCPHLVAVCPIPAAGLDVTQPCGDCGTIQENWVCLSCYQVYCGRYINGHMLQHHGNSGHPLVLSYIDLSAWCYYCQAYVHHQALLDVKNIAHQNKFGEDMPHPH
Description: HDAC6 Enzyme Assay. The format is biochemical. The conditions noted are these: enzyme inhibition, substrate Ac-Arg-Gly-Lys(Ac)-AMC, 1 hour at 30° C. The method, then: To measure the inhibition of HDAC6 activity, purified human HDAC6 (BPS Bioscience; Cat. No. 5006) is incubated with substrate Ac-Arg-Gly-Lys(Ac)-AMC peptide (Bachem Biosciences; Cat. No. I-1925) for 1 hour at 30° C. in the presence of test compounds or vehicle DMSO control. The reaction is stopped with the HDAC inhibitor trichostatin A (Sigma; Cat. No. T8552) and the amount of Arg-Gly-Lys-AMC generated is quantitated by digestion with trypsin (Sigma; Cat. No. T1426) and subsequent measurement of the amount of AMC released using a fluorescent plate reader (Pherastar; BMG Technologies) set at Ex 340 nm and Em 460 nm. Concentration response curves are generated by calculating the fluorescence increase in test compound-treated samples relative to DMSO-treated controls, and enzyme inhibition (IC50) values are determined from those curves.

IC50 data for 27 molecules are collected here from patent publication US8624040B2, “Substituted hydroxamic acids and uses thereof” (Millennium Pharmaceuticals, Inc., priority 2009, dated 2014).

As for `O=C(NO)c1cc2c(s1)CN(S(=O)(=O)CC(c1ccccc1)c1ccccc1)CC2` [Compound 18, 6-[(2,2-diphenylethyl)sulfonyl]-N-hydroxy-4,5,6,7-tetrahydrothieno[2,3-c]pyridine-2-carboxamide], the IC50 – broadly, the midpoint of a concentration-inhibition curve – was below 50 nM.
For `O=C(NO)c1cc2c(s1)CN(C(=O)Nc1cccc(C(F)(F)F)c1)CC2` [Compound 54, N^2-hydroxy-N^6-[3-(trifluoromethyl)phenyl]-4,7-dihydrothieno[2,3-c]pyridine-2,6(5H)-dicarboxamide], the 50% inhibitory concentration (IC50) was below 50 nM.
For the molecule `O=C(NO)c1cc2c(s1)CN(C(=O)CSc1cccc(C(F)(F)F)c1)CC2` [Compound 89, N-hydroxy-6-({[3-(trifluoromethyl)phenyl]sulfanyl}acetyl)-4,5,6,7-tetrahydrothieno[2,3-c]pyridine-2-carboxamide], the IC50 is below 50 nM.
In turn, `O=C(NO)c1cc2c(s1)CN(C(=O)Nc1ccc(-c3ccccc3)s1)CC2` [Compound 40, N^2-hydroxy-N^6-(5-phenyl-2-thienyl)-4,7-dihydrothieno[2,3-c]pyridine-2,6(5H)-dicarboxamide] returned an IC50 below 50 nM.
Turning to `CCC(Oc1ccccc1)C(=O)N1CCc2cc(C(=O)NO)sc2C1` (stereo not drawn) [Compound 6, N-hydroxy-6-(2-phenoxybutanoyl)-4,5,6,7-tetrahydrothieno[2,3-c]pyridine-2-carboxamide], the IC50 was below 50 nM.
Molecule `Cc1noc(C)c1S(=O)(=O)N1CCc2cc(C(=O)NO)sc2C1` [Compound 20, 6-[(3,5-dimethylisoxazol-4-yl)sulfonyl]-N-hydroxy-4,5,6,7-tetrahydrothieno[2,3-c]pyridine-2-carboxamide] registered an IC50 below 50 nM.
Then `Cc1c(C(=O)NO)sc2c1CN(C(=O)c1ccc(Cl)cc1)CC2` [Compound 193, 5-(4-chlorobenzoyl)-N-hydroxy-3-methyl-4,5,6,7-tetrahydrothieno[3,2-c]pyridine-2-carboxamide], with below 50 nM; and `Nc1[nH]ncc1C(=O)N1CCc2cc(C(=O)NO)sc2C1` [Compound 159, 6-[(5-amino-1H-pyrazol-4-yl)carbonyl]-N-hydroxy-4,5,6,7-tetrahydrothieno[2,3-c]pyridine-2-carboxamide], with below 50 nM.
`Cn1cccc1C(=O)N1CCc2sc(C(=O)NO)cc2C1` [Compound 27, N-hydroxy-5-[(1-methyl-1H-pyrrol-2-yl)carbonyl]-4,5,6,7-tetrahydrothieno[3,2-c]pyridine-2-carboxamide]: the IC50 is below 50 nM.
The result for `Cc1ccoc1C(=O)N1CCc2cc(C(=O)NO)sc2C1` [Compound 94, N-hydroxy-6-(3-methyl-2-furoyl)-4,5,6,7-tetrahydrothieno[2,3-c]pyridine-2-carboxamide] reads below 50 nM; that for `Cc1nc(C)c(CC(=O)N2CCc3cc(C(=O)NO)sc3C2)s1` [Compound 47, 6-[(2,4-dimethyl-1,3-thiazol-5-yl)acetyl]-N-hydroxy-4,5,6,7-tetrahydrothieno[2,3-c]pyridine-2-carboxamide], 50 to 100 nM.
The result for `CC1(C)CN(C(=O)c2cc3ccccc3s2)Cc2cc(C(=O)NO)sc21` [Compound 195, 5-(1-benzothien-2-ylcarbonyl)-N-hydroxy-7,7-dimethyl-4,5,6,7-tetrahydrothieno[3,2-c]pyridine-2-carboxamide] reads above 1000 nM.
For `O=C(NO)c1cc2c(s1)CN(C(=O)c1cscn1)CC2` [Compound 146, N-hydroxy-6-(1,3-thiazol-4-ylcarbonyl)-4,5,6,7-tetrahydrothieno[2,3-c]pyridine-2-carboxamide], the IC50 was below 50 nM.
Then `Cc1onc(-c2ccccc2)c1NC(=O)N1CCc2cc(C(=O)NO)sc2C1` [Compound 132, N^2-hydroxy-N^6-(5-methyl-3-phenylisoxazol-4-yl)-4,7-dihydrothieno[2,3-c]pyridine-2,6(5H)-dicarboxamide], with below 50 nM.
For the molecule `O=C(NO)c1cc2c(s1)CN(C(=O)c1c(F)c(F)cc(F)c1F)CC2` [Compound 156, N-hydroxy-6-(2,3,5,6-tetrafluorobenzoyl)-4,5,6,7-tetrahydrothieno[2,3-c]pyridine-2-carboxamide], the half-maximal inhibitory concentration (IC50) was below 50 nM.
Then `Cc1c(C(=O)NO)sc2c1CN(C(=O)c1ccc(-c3ccccc3)cc1)CC2` [Compound 233, 5-(biphenyl-4-ylcarbonyl)-N-hydroxy-3-methyl-4,5,6,7-tetrahydrothieno[3,2-c]pyridine-2-carboxamide], with below 50 nM.
The molecule `O=C(NO)c1cc2c(s1)CN(C(=O)C1(c3ccc(F)cc3Cl)CCCC1)CC2` [Compound 13, 6-{[1-(2-chloro-4-fluorophenyl)cyclopentyl]carbonyl}-N-hydroxy-4,5,6,7-tetrahydrothieno[2,3-c]pyridine-2-carboxamide] gave an IC50 below 50 nM.
Molecule `Cc1c(C(=O)NO)sc2c1CN(C(=O)c1cc3ccccc3s1)CC2` [Compound 205, 5-(1-benzothien-2-ylcarbonyl)-N-hydroxy-3-methyl-4,5,6,7-tetrahydrothieno[3,2-c]pyridine-2-carboxamide] had an IC50 below 50 nM.
Regarding `Cc1onc(-c2ccc(F)cc2)c1C(=O)N1CCc2cc(C(=O)NO)sc2C1` [Compound 184, 6-{[3-(4-fluorophenyl)-5-methylisoxazol-4-yl]carbonyl}-N-hydroxy-4,5,6,7-tetrahydrothieno[2,3-c]pyridine-2-carboxamide], the IC50 is below 50 nM.
`O=C(NO)c1cc2c(s1)CN(Cc1ccc(-n3cccn3)cc1)CC2` [Compound 23, N-hydroxy-6-[4-(1H-pyrazol-1-yl)benzyl]-4,5,6,7-tetrahydrothieno[2,3-c]pyridine-2-carboxamide] gave an IC50 below 50 nM.
As to `Cc1ccc(OCC(=O)N2CCc3cc(C(=O)NO)sc3C2)c(C)c1` [Compound 12, 6-[(2,4-dimethylphenoxy)acetyl]-N-hydroxy-4,5,6,7-tetrahydrothieno[2,3-c]pyridine-2-carboxamide], the IC50 is above 1000 nM.
Take `Cn1nc(C(C)(C)C)cc1C(=O)N1CCc2cc(C(=O)NO)sc2C1` [Compound 88, 6-[(3-tert-butyl-1-methyl-1H-pyrazol-5-yl)carbonyl]-N-hydroxy-4,5,6,7-tetrahydrothieno[2,3-c]pyridine-2-carboxamide]: the IC50 was below 50 nM.
For the molecule `CC1(C)CN(C(=O)Nc2ccc(C#N)cc2)Cc2cc(C(=O)NO)sc21` [Compound 196, N^5-(4-cyanophenyl)-N2-hydroxy-7,7-dimethyl-6,7-dihydrothieno[3,2-c]pyridine-2,5(4H)-dicarboxamide], the IC50 is above 1000 nM.
The molecule `CCn1nc(C)cc1C(=O)N1CCc2cc(C(=O)NO)sc2C1` [Compound 149, 6-[(1-ethyl-3-methyl-1H-pyrazol-5-yl)carbonyl]-N-hydroxy-4,5,6,7-tetrahydrothieno[2,3-c]pyridine-2-carboxamide] displayed an IC50 of 50 to 100 nM.
`O=C(NO)c1cc2c(s1)CN(C(=O)c1ccco1)CC2` [Compound 42, 6-(furan-2-carbonyl)-N-hydroxy-4,5,6,7-tetrahydrothieno[2,3-c]pyridine-2-carboxamide] yielded an IC50 below 50 nM.
`O=C(NO)c1cc2c(s1)CN(C(=O)C(C1CCCCC1)C1CCCCC1)CC2` [Compound 10, 6-(dicyclohexylacetyl)-N-hydroxy-4,5,6,7-tetrahydrothieno[2,3-c]pyridine-2-carboxamide] registered a 50% inhibitory concentration (IC50) of 50 to 100 nM.
With `CC1(C(=O)N2Cc3cc(C(=O)NO)sc3C(C)(C)C2)CCCCC1` [Compound 224, N-hydroxy-7,7-dimethyl-5-[(1-methylcyclohexyl)carbonyl]-4,5,6,7-tetrahydrothieno[3,2-c]pyridine-2-carboxamide], the half-inhibitory concentration (IC50) was above 1000 nM.
